In US9670519B2, “Methods for reducing accumulation of lactate during culturing and method for producing polypeptide” (Biocon Limited, priority 2011, dated 2017):
Read-outs that look alike come from different tables or passages of the source.

Experiments:
[1] = tested on: Chinese Hamster Ovary (CHO) cells genetically engineered to produce the Anti Her-2 antibody; settings: for Residual Lactate: salt 0.4 mM in HyClone CDM4NS0 medium, fedbatch; for further reduction in the accumulation of lactate in presence of said salt (versus control) / reduction of the accumulation of lactate in the media with the added salt: salt 0.4 mM, over the run till 7th day
Experimental: (§1) In another embodiment of the present disclosure, the level of lactate in the medium is analyzed using the device YSI 7100 MBS Analyzer.
(§2) The level of lactate is analyzed for all the following experiments in the below examples by the use of the YSI 7100 MBS Analyzer. The pH for all the below experiments as recited in the following examples are maintained between pH 6.85-7.2. The level of Oxygen is also maintained by the oxygen levels are maintained by agitation in the shaker incubator. In all the below mentioned examples, the concentration of the added salt is the concentration of the salt as present in the medium. The temperature can be suitably varied, based on the nature of the cells used and other related parameters.
(§3) The cell culturing was performed in fedbatch mode. In the cell culture, the mammalian host cells used were Chinese Hamster Ovary (CHO) cells and HyClone CDM4NS0 culture medium was supplied initially. The CHO cells were genetically engineered to produce the Anti Her-2 antibody. The copper sulphate pentahydrate salt was added in the medium at a concentration of 0.4 mM. In contrast, there was no addition of any copper salt in the control medium. The production fermentation run started with an initial cell count of 0.3-0.45×10^6 cells/ml at 37±1° C., the first 3-4 days were dedicated to grow the cells in batch phase. In the next step, the temperature is lowered to 31+/−1° C. and the run is continued till 7th day. […] The produced Anti Her-2 antibody was then collected from the media using the technique of Affinity Chromatography.
as §3, with “zinc” for “copper”, “hepta hydrate” for “pentahydrate”

[2] = tested on: Chinese Hamster Ovary (CHO) cells genetically engineered to produce the Anti TNF antibody; settings: for Residual Lactate: salt 0.4 mM in HyClone CDM4NS0 medium, fedbatch; for further reduction in the accumulation of lactate in presence of said salt (versus control) / reduction of the accumulation of lactate in the media with the added salt: salt 0.4 mM, over the run till 7th day
Experimental: as §1, §2
as §3, with “Anti TNF” for “Anti Her-2”, “salt is also” for “salt was”, “to 31±1°” for “to 31+/−1°”
(§4) The cell culturing was performed in a fedbatch mode. In the cell culture, the mammalian host cells used were Chinese Hamster Ovary (CHO) cells and HyClone CDM4NS0 culture medium was supplied initially. The CHO cells were genetically engineered to produce the Anti TNF antibody. The zinc sulphate hepta hydrate salt is also added in the medium at a concentration of 0.4 mM. In contrast, there was no addition of any zinc salt in the control medium. The production fermentation run started with an initial cell count of 0.3-0.45×10^6 cells/ml at 37±1° C., the first 3-4 days were dedicated to grow the cells in batch phase. In the next step, the temperature is lowered to 31±1° C. and the run is continued till 7th day. […] The produced Anti TNF antibody was then collected from the media using the technique of Affinity Chromatography.

[3] = tested on: Chinese Hamster Ovary (CHO) cells genetically engineered to produce the Anti VEGF-A antibody; settings: for Residual Lactate: fedbatch; for further reduction in the accumulation of lactate in presence of said salt (versus control) / reduction of the accumulation of lactate in the media with the added salt: over the run till 7th day
Experimental: as §1, §2
as §3, with “VEGF-A” for “Her-2”
as §4, with “fedbatch.” for “a fedbatch mode.”, “VEGF-A” for “TNF”, “was” for “is also”, “31+/−1°” for “31±1°”
as §3, with “fedbatch mode is employed.” for “fedbatch mode.”, “Anti VEGF-A Antibody.” for “Anti Her-2 antibody.”, “salt is also” for “salt was”, “of 0.2” for “of 0.4”, “to 31±1°” for “to 31+/−1°”, “Anti VEGF-A Antibody” for “Anti Her-2 antibody”
The cell culturing was performed in fedbatch mode. In the cell culture, the mammalian host cell used were Chinese Hamster Ovary (CHO) cells and HyClone CDM4NS0 culture medium was supplied initially. The CHO cells were genetically engineered to produce the Anti VEGF-A Antibody. The zinc sulphate hepta hydrate salt is also added in the medium at a concentration of 0.2 mM. In contrast, there was no addition of any zinc salt in the control medium.

[4] = tested on: Chinese Hamster Ovary (CHO) cells genetically engineered to produce the Anti CD6 Antibody; settings: for Residual Lactate: salt 0.4 mM in HyClone CDM4NS0 medium, fedbatch
Experimental: as §1, §2
as §4, with “in” for “in a”, “cellculture,” for “cell culture,”, “CD6 Antibody.” for “TNF antibody.”, “is” for “is also”, “CD6 Antibody” for “TNF antibody”

[5] = salt 0.2 mM in HyClone CDM4NS0 medium, age 72 hours
[6] = salt 0.2 mM in HyClone CDM4NS0 medium, age 96 hours
[7] = salt 0.2 mM in HyClone CDM4NS0 medium, age 120 hours
[8] = salt 0.2 mM in HyClone CDM4NS0 medium, age 144 hours
[9] = salt 0.2 mM in HyClone CDM4NS0 medium, age 168 hours
[10] = salt 0.4 mM in HyClone CDM4NS0 medium, age 72 hours
[11] = salt 0.4 mM in HyClone CDM4NS0 medium, age 96 hours
[12] = salt 0.4 mM in HyClone CDM4NS0 medium, age 120 hours
[13] = salt 0.4 mM in HyClone CDM4NS0 medium, age 144 hours
[14] = salt 0.4 mM in HyClone CDM4NS0 medium, age 168 hours
[15] = salt 0.4 mM, over the run till 7th day

SMILES | Residual Lactate ([1]; age 72 hours) [mM] | Residual Lactate ([1]; age 96 hours) [mM] | Residual Lactate ([1]; age 120 hours) [mM] | Residual Lactate ([1]; age 144 hours) [mM] | Residual Lactate ([1]; age 168 hours) [mM] | further reduction in the accumulation of lactate in presence of said salt (versus control) [1] | reduction of the accumulation of lactate in the media with the added salt [1] | Residual Lactate ([2]; age 96 hours) [mM] | Residual Lactate ([2]; age 120 hours) [mM] | Residual Lactate ([2]; age 144 hours) [mM] | Residual Lactate ([2]; age 168 hours) [mM] | further reduction in the accumulation of lactate in presence of said salt (versus control) [2] | reduction of the accumulation of lactate in the media with the added salt [2] | Residual Lactate [3, 5] [mM] | Residual Lactate [3, 6] [mM] | Residual Lactate [3, 7] [mM] | Residual Lactate [3, 8] [mM] | Residual Lactate [3, 9] [mM] | further reduction in the accumulation of lactate in presence of said salt (versus control) ([3]; salt 0.2 mM) | reduction of the accumulation of lactate in the media with the added salt ([3]; salt 0.2 mM) | other results
O.O.O.O.O.O=S(=O)([O-])[O-].[Cu+2] [Copper salt, copper sulphate pentahydrate] | 16 | 11.8 | 7.4 | 6.9 | 5.6 | about 14.5% | about 65% | 20.3 | 16.3 | 13.2 | 14.6 | about 13.05% | about 28.43% | 23.3 | 14.9 | 7.9 | 5.8 | 2.7 | about 6.17% | about 85.40% | Residual Lactate ([2]; age 72 hours): 20.4 mM; Residual Lactate [3, 10]: 16 mM; Residual Lactate [3, 11]: 14.8 mM; Residual Lactate [3, 12]: 5.9 mM; Residual Lactate [3, 13]: 3.4 mM; Residual Lactate [3, 14]: 2 mM; further reduction in the accumulation of lactate in presence of said salt (versus control) ([3]; salt 0.4 mM): about 26.5%; reduction of the accumulation of lactate in the media with the added salt ([3]; salt 0.4 mM): about 87.5%
O.O.O.O.O.O.O.O=S(=O)([O-])[O-].[Zn+2] [Zinc salt, zinc sulphate hepta hydrate] | 16 | 11.8 | 7.4 | 6.9 | 5.6 | about 30.38% | about 64.88% | 19.6 | 16.4 | 13.8 | 15 | about 6.09% | about 23.46% | 23.3 | 16.3 | 10 | 5.9 | 3.4 | about 9.18% | about 88.41% | Residual Lactate ([4]; age 72 hours): 18 mM; Residual Lactate ([4]; age 96 hours): 11.2 mM; Residual Lactate ([4]; age 120 hours): 6.2 mM; Residual Lactate ([4]; age 144 hours): 3 mM; Residual Lactate ([4]; age 168 hours): 3.2 mM; further reduction in the accumulation of lactate in presence of said salt (versus control) [4, 15]: about 11.67%; reduction of the accumulation of lactate in the media with the added salt [4, 15]: about 82.22%; Residual Lactate [3, 10]: 16.6 mM; Residual Lactate [3, 11]: 14.7 mM; Residual Lactate [3, 12]: 7.6 mM; Residual Lactate [3, 13]: 6.2 mM; Residual Lactate [3, 14]: 4.5 mM; further reduction in the accumulation of lactate in presence of said salt (versus control) ([3]; salt 0.4 mM): about 11.57%; reduction of the accumulation of lactate in the media with the added salt ([3]; salt 0.4 mM): about 72.89%
